Results as given in the NIST ThermoML archive (doi:10.1016/j.jct.2012.06.018).
Numbers after ± are expanded uncertainties.

Details: for surface tension liquid-gas: Ring tensiometer; for viscosity / mass density: 101.33 kPa, Liquid; for viscosity: Capillary tube (Ostwald / Ubbelohde) method; for mass density: Pycnometric method

CCCC[n+]1ccc(C)cc1.O=S(=O)([N-]S(=O)(=O)C(F)(F)F)C(F)(F)F
Details	mass density [kg/m3]	surface tension liquid-gas [mN/m]	viscosity [mPa·s]
293.15 K	1419 ± 25	35.4 ± 0.6	65.26 ± 6.5
298.15 K	1413 ± 25	35 ± 0.6	54.41 ± 5.5
303.15 K	1412 ± 25	34.7 ± 0.6	44.42 ± 4.5
308.15 K	1411 ± 25	34.5 ± 0.6	36.12 ± 3.6
313.15 K	1410 ± 25	34.2 ± 0.6	29.81 ± 3
318.15 K	1409 ± 25	34 ± 0.6	25.18 ± 2.5
323.15 K	1405 ± 25	33.8 ± 0.6	20.23 ± 2

CCCC[n+]1cccc(C)c1.O=S(=O)([N-]S(=O)(=O)C(F)(F)F)C(F)(F)F
Details	mass density [kg/m3]	surface tension liquid-gas [mN/m]	viscosity [mPa·s]
293.15 K	1429 ± 25	35.8 ± 0.6	81.71 ± 8.2
298.15 K	1425 ± 25	35.5 ± 0.6	64.73 ± 6.5
303.15 K	1423 ± 25	35.3 ± 0.6	51.42 ± 5.2
308.15 K	1421 ± 25	35.1 ± 0.6	41.73 ± 4.2
313.15 K	1420 ± 25	34.8 ± 0.6	33.98 ± 3.4
318.15 K	1419 ± 25	34.6 ± 0.6	29.05 ± 2.9
323.15 K	1416 ± 25	34.4 ± 0.6	25.68 ± 2.6

CCCC[n+]1ccccc1C.O=S(=O)([N-]S(=O)(=O)C(F)(F)F)C(F)(F)F
Details	mass density [kg/m3]	surface tension liquid-gas [mN/m]	viscosity [mPa·s]
293.15 K	1482 ± 25	36.5 ± 0.6	143.91 ± 15
298.15 K	1476 ± 25	36.3 ± 0.6	95.73 ± 9.7
303.15 K	1459 ± 25	36.1 ± 0.6	72.05 ± 7.2
308.15 K	1450 ± 25	35.9 ± 0.6	56.95 ± 5.7
313.15 K	1446 ± 25	35.5 ± 0.6	45.83 ± 4.6
318.15 K	1440 ± 25	35.2 ± 0.6	37.39 ± 3.8
323.15 K	1435 ± 25	35 ± 0.6	29.48 ± 3

CCCC[n+]1cccc(C)c1.F[B-](F)(F)F [1-butyl-3-methylpyridinium tetrafluoroborate]
Details	mass density [kg/m3]	surface tension liquid-gas [mN/m]	viscosity [mPa·s]
293.15 K	1189 ± 25	47.5 ± 0.7	226.15 ± 23
298.15 K	1177 ± 25	47.1 ± 0.7	169.51 ± 17
303.15 K	1172 ± 25	45.8 ± 0.7	129.06 ± 13
308.15 K	1168 ± 25	45.6 ± 0.7	97.03 ± 9.8
313.15 K	1166 ± 25	45.3 ± 0.7	73.35 ± 7.4
318.15 K	1163 ± 25	44.9 ± 0.7	59.05 ± 5.9
323.15 K	1160 ± 25	44.4 ± 0.7	46.59 ± 4.7
